Reference: ChEMBL document CHEMBL1221200, “Diarylquinolines target subunit c of mycobacterial ATP synthase” (Nat Chem Biol, 2007)
In brackets after ≈: the same amount, converted by molar mass.

Test system: Mycobacterium tuberculosis
Assay: Antimicrobial activity against Mycobacterium bovis BCG by alamar blue assay
Type: functional, variant bovis BCG

| Compound | MIC90 | MIC90 (Mycobacterium tuberculosis, variant bovis BCG, read-out: MIC90) |
| --- | --- | --- |
| COc1nc2ccc(Br)cc2cc1[C@H](c1ccccc1)[C@@](O)(CCN(C)C)c1cccc2ccccc12 (racemic; 1c) | 7.9 µg/mL (≈ 14.2 µM) |  |
| COc1nc2ccc(Br)cc2cc1[C@H](c1ccccc1)[C@@](O)(CCN(C)C)c1cccc2ccccc12 (racemic; 1d) | 1.8 µg/mL (≈ 3.24 µM) |  |
| COc1nc2ccc(Br)cc2cc1[C@@H](c1ccccc1)[C@@](O)(CCN(C)C)c1cccc2ccccc12 (single isomer, unassigned) [BEDAQUILINE] | 1.8 µg/mL (≈ 3.24 µM) |  |
| COc1nc2ccc(Br)cc2cc1[C@@H](c1ccccc1)[C@@](O)(CCN(C)C)c1cccc2ccccc12 [BEDAQUILINE] | 0.07 µg/mL (≈ 0.126 µM) |  |
| CO[C@H]1/C=C/O[C@@]2(C)Oc3c(C)c(O)c4c(O)c(c(/C=N/N5CCN(C)CC5)c(O)c4c3C2=O)NC(=O)/C(C)=C\C=C\[C@H](C)[C@H](O)[C@@H](C)[C@@H](O)[C@@H](C)[C@H](OC(C)=O)[C@@H]1C [RIFAMPIN] |  | 0.02 µg/mL (≈ 0.0243 µM) |
